Reference: patent US7812026B2, “Imidazole derivatives having a positive allosteric GABAB receptor modulator effect and methods of use” (AstraZeneca AB, priority 2005, dated 2010)

Target: T1, GABAB receptor (Homo sapiens, UniProt O75899+Q9UBS5)
T1 construct: expressed in transfected cells; host or cells: CHO cells (membranes)
Assay: [35S]-GTPγS binding assay, potency of PAM
Type: biochemical
Conditions: potency of the positive allosteric modulator; log EC50 for GABA plotted against log concentration of modulator
Experimental: [^35S]-GTPγS binding assays were performed at 30° C. for 45 min in membrane buffer (100 mM NaCl, […], 1 mM EDTA, 50 mM HEPES, pH 7.4) containing 0.025 μg/μl of membrane protein (prepared from the cell lines described above) with 0.01% bovine serum albumin (fatty acid free), 10 μM GDP, 100 μM DTT and 0.53 nM [^35S]-GTPγS (Amersham-Pharmacia Biotech) in a final volume of 200 μl. Nonspecific binding was determined in the presence of 20 μM GTPγS. The reaction was started by the addition of GABA at concentration between 1 mM and 0.1 nM in the presence or absence of the required concentration of PAM. The reaction was terminated by addition of ice-cold wash buffer (50 mM Tris-HCl, 5 mM MgCl2, 50 mM NaCl, pH 7.4) followed by rapid filtration under vacuum through Printed Filtermat A glass fiber filters (Wallac) (0.05% PEI treated) using a Micro 96 Harvester (Skatron Instruments). The filters were dried for 30 min at 50° C., then a paraffin scintillant pad was melted onto the filters and the bound radioactivity was determined using a 1450 Microbeta Trilux (Wallac) scintillation counter.
GABA dose-response curves in the presence and absence of test compounds were constructed using the 4-parameter logistic equation, y=ymax+((ymin−ymax)/1+(x/C)^D), where C=EC50 and D=slope factor.
The potency of PAM in GTPγS assays was determined by plotting the log EC50 for GABA against the log concentration of the positive allosteric modulator in the presence of which the measurement was performed.

T1 sequence (Q9UBS5 15-961 limits assumed): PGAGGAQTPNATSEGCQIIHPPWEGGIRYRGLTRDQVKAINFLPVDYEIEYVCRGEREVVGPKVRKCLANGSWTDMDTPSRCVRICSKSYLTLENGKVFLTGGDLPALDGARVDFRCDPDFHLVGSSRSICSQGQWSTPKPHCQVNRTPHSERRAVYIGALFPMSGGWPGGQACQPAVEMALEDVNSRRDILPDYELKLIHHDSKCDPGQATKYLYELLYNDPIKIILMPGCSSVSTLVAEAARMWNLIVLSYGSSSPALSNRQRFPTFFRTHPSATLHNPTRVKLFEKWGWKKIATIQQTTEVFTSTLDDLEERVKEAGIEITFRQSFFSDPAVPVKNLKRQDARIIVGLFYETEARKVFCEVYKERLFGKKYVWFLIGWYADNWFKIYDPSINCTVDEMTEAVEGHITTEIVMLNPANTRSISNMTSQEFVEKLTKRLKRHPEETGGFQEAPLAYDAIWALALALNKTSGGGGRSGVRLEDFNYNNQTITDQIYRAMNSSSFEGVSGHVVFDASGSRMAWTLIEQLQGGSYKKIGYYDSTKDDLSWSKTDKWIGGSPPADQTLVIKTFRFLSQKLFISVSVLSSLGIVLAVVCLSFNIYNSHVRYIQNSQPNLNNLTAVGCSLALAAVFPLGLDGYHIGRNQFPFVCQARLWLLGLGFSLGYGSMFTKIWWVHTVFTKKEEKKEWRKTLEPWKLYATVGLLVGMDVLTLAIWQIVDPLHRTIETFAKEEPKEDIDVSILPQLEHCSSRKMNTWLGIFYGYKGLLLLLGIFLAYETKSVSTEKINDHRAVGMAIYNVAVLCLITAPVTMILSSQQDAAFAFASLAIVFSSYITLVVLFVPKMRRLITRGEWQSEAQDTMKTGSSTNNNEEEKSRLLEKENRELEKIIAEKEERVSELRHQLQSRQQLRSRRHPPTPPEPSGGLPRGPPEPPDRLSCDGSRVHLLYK
T1 sequence (O75899 42-941): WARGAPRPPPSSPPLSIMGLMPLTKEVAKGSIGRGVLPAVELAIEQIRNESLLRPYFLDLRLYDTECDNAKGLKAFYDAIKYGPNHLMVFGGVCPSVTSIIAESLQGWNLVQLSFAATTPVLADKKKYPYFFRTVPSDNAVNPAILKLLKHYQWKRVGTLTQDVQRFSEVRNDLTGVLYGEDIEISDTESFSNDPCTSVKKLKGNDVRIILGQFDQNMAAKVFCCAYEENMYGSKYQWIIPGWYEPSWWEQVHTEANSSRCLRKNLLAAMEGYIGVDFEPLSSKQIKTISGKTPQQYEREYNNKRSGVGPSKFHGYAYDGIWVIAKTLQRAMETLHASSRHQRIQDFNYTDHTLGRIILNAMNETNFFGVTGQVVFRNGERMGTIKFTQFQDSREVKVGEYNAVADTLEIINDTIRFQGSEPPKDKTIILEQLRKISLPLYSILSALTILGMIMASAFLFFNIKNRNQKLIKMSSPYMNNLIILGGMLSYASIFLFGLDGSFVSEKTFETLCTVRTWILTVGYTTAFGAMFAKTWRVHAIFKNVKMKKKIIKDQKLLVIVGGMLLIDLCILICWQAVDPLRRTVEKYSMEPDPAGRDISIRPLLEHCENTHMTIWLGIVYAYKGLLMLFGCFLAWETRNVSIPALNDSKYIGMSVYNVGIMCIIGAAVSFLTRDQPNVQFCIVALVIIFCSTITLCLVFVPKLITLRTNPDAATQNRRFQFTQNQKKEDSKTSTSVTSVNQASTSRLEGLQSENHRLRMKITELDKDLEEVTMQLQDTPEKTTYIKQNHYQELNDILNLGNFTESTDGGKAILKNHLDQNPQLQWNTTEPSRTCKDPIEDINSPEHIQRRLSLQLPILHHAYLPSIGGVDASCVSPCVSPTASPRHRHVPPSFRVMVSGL

| EC50 [µM] | Compound |
| --- | --- |
| 5.13 | CN(C)c1nc(NC(=O)C2Cc3ccccc3O2)c(C(=O)OC(C)(C)C)n1-c1ccccc1 (stereo not drawn) [Example 13, tert-butyl 4-[(2,3-dihydro-1-benzofuran-2-ylcarbonyl)amino]-2-(dimethylamino)-1-phenyl-1H-imidazole-5-carboxylate] |
| 2.53 | CCCc1c(C(=O)Nc2nc(N(C)C)n(-c3ccccc3)c2C(=O)OC(C)(C)C)cnn1-c1ccccc1 [Example 44, tert-butyl 2-(dimethylamino)-1-phenyl-4-{[(1-phenyl-5-propyl-1H-pyrazol-4-yl)carbonyl]amino}-1H-imidazole-5-carboxylate] |
| 2.47 | CN(C)c1nc(NC(=O)COCc2ccccc2)c(C(=O)OC(C)(C)C)n1-c1ccccc1 [Example 9, tert-butyl 4-{[(benzyloxy)acetyl]amino}-2-(dimethylamino)-1-phenyl-1H-imidazole-5-carboxylate] |
